Here are results for 3 compounds from US11406625B2, “Method of treating amyotrophic lateral sclerosis with pridopidine” (PRILENIA NEUROTHERAPEUTICS LTD., priority 2017, dated 2022).

The test system of one experiment is S1R. The settings on record: by activation of the S1R (Ryskamp 2017); cited from earlier work.
A further experiment deals with SOD1G93A mice. The settings on record: 30 mg/kg daily s.c. for 11 weeks. As for the experimental part: Presymptomatic SOD1G93A mice (5 weeks of age) and WT controls were treated with either saline, 3 or 30 mg/kg pridopidine, by daily s.c. (subcutaneous) administration for 11 weeks (until 16 weeks of age). At the end of the experiment, lumbar spinal cords (L1-L6) were extracted, fixed, and embedded for cryosectioning.

Experiment [1] deals with motor neurons (MNs) from spinal cord explants. In words: Axonal transport assay of Qdot-BDNF in microfluidic chamber. It is filed as cell-based, mice. The settings on record: for velocity of BDNF axonal transport: S1R−/− (S1R KO) MNs. An excerpt:
Healthy motor neurons (MN) extend axons over long distances and through varying extracellular microenvironments to form synapses with muscles. The ability of the neuron to maintain this specialized morphology depends on cytoskeletal elements and continuous transport of proteins and organelles to and from the cell body. Cytoskeletal alterations are a major pathway implicated in the pathogenesis of ALS affecting axonal transport, growth and neuromuscular junction (NMJ) function (Eykens and Robberecht, 2015). Alterations in axonal transport are one of the first cellular processes that occur in neurodegenerative disease, including ALS. Axonal transport was evaluated using an in vitro compartmentalized system of microfluidic chambers (MFC) that separates neuronal cell bodies from their axons and synapses, enabling the study of retrograde/anterograde transport by specific monitoring and manipulation of cellular microenvironments (FIG. 1b: Zahavi 2015; Ionescu 2016).
Quantum-Dot labeled BDNF (Qdot BDNF) is retrogradely transported in axons of motor neurons grown from spinal cord explants in a microfluidic chamber (MFC). A MFC was used to analyze Qdot BDNF axonal transport. Axonal transport of BDNF in the SOD1 model (SOD1G93A) for ALS has been studied (Bilsland 2010; Perlson 2009; De Vos 2007). The effect of pridopidine on transport of Qdot BDNF along the axons of motor neurons was assessed in spinal cord explants from E12.5 SOD1 G93A and WT littermate mice (LM). Experimental workflow for the axonal transport assay (from left to right, FIG. 1a): SOD1G93A or wild Type (LM) spinal cord explants were plated in the MFC. At about 5 days post plating, axons began to cross over into the distal compartment. On day 6 post plating, an amount of pridopidine was added to both compartments. On day 7, Qdot-BDNF was added to the distal compartment and axonal transport was imaged using a high-resolution spinning-disk confocal microscope. Schematic illustration of microfluidic chamber system (FIG. 1b): Explants planted in the proximal compartment extend axons to the distal compartment, where Qdot-BDNF is applied exclusively prior to visualization.
Spinning disk confocal microscopy was used to track Qdot BDNF along the axons of motor neuron explant cultures. Time lapse images of Qdot-BDNF axonal transport as acquired at 60× magnification (FIG. 1c). Arrowheads point to a single Qdot-BDNF particle that is retrogradely transported (left) towards the cell body. Scale bar: 10 μm. […] Scale bars: horizontal 10 μm: vertical 100 seconds (FIG. 1c).
. Six independent biological repeats, from 6 different cultures were tested so that from each culture and explant with neurons/glia ˜250 BDNF particles were followed along the axons in the grooves. Velocity refers to the movement of a single BDNF particle. The experiment was repeated with MNs from mice in which sigma 1 receptor was genetically deleted (S1R KO or S1R−/−) (Langa, 2003). Ventral spinal cord sections from S1R−/− mice embryos were cultured and plated in the MFC as described above, and the axonal transport of Qdot-BDNF was analyzed.
SOD1G93 and S1R−/− explants with or without pridopidine were compared to littermate controls (LM).
Qdot-BDNF particle tracking was performed on Bitplane Imaris, using the semi-automated spot tracking function. […]; stop duration: speed<0.1 μm/sec for 3 frames. Data were then exported to MATLAB for further analysis of particle transport including Instantaneous Velocities (FIG. 2a) from 6 independent cultures, and Stop count (FIG. 2b).

In a further experiment the test system is MN-myocyte co-culture. As for the experimental part:
Synapse disruption is the earliest cellular compartment disrupted in ALS. To test the ability of pridopidine to affect synapse function in an ALS model, cultures from Experiment 2 were grown for approximately four additional days (day 18), when axons extend into the distal compartment and generate NMJs.
Scale bar: 201 μm. […] To evaluate NMJ function, movies of muscle contraction were acquired at a frame rate of 30 frames per second for 1000 frames (FIG. 5b).
Briefly, contractile activity of muscles in the distal compartment of the MFC, which were overlapped by at least one axon was examined. Muscles were categorized into two groups: ‘Contracting’ or ‘Non-contracting’, depending on their motile activity during the movie. The motility of muscles was validated by generating intensity-over-time plots for each muscle (FIG. 5b). The number of contracting muscle fibers per chamber was divided by the total number of muscle fibers analyzed in the same chamber, yielding the percentage of contracting myotubes as an output for NMJ activity.

In experiment [2] the test system is motor neuron axons co-cultured with primary myocytes. The settings on record: myocytes carrying SOD1G93A mutation, 1 μM.
Method: Primary muscle cells from presymptomatic (P60) WT or SOD1G93A mice were cultured. On day 6 primary skeletal myoblasts were cultured in the distal compartment of a MFC. About six days later (day 12), ventral spinal cord explants from WT or SOD1G93A E12.5 mouse embryos that express HB9-GFP (a specific motor neuron marker) were plated in the proximal compartment, followed by application of pridopidine or vehicle to both compartments. Pridopidine was refreshed every other day. Two days post explant plating (day 14), motor axon growth and degeneration were evaluated using live imaging on a spinning disc confocal system. Axonal growth was tracked by imaging every 10 min for 8 hrs. Experiments were repeated three times.
A further experiment relates to neuroblastoma cell line. Particulars: S1R-dependent (Geva 2016); cited from earlier work.
The subject of another experiment is rat striatum. Particulars: transcriptomic analysis; cited from earlier work.
Experiment [3] concerns human subjects afflicted with ALS. The settings on record: periodic oral administration.
The subject of experiment [4] is SOD1G93A mice and WT controls. Particulars: for increase in the muscle fiber diameter: Gastrocnemius, 30 mg/kg s.c. daily. As for the experimental part:
NMJ disruption and the subsequent skeletal muscle wasting are two main pathologies of ALS. Effect of pridopidine on muscle fiber atrophy and preservation of NMJs was evaluated in-vivo. Presymptomatic SOD1G93A mice and WT controls (5 weeks old) were treated with either saline, or pridopidine 3 or 30 mg/kg, by daily s.c. administration for 11 weeks. The Gastrocnemius muscles from vehicle or pridopidine-treated (30 mg/kg s.c.) mice were extracted from the SOD1G93A and WT mice at age 16 weeks. Muscle cross-sections were stained with Hematoxylin & Eosin (H& E), and the mean muscle fiber diameter was quantified for each group (FIG. 10a). NMJ preservation was evaluated by confocal imaging of co-localizing pre (NFH+Synapsin-I (green)- and post-synaptic (AchR (BTX; red) markers and counting the number of fully innervated NMJs in gastrocnemius muscles (FIG. 11a).

The next experiment concerns ERK. The settings on record: 30 minutes. As for the experimental part:
The ERK pathway promotes numerous cellular functions including proliferation and differentiation. […] Primary MN cultures at 2 DIV were starved overnight in neurotrophin- and serum-free medium (PNB). The following day, cultures were treated for 30 minutes with pridopidine or with BDNF as a positive control.

Another experiment relates to ALS patients. The settings on record: cited from earlier work.

SMILES strings stand for the structures. Like-named read-outs stand apart in the source and are kept apart here.

`CCCN1CCC(c2cccc(S(C)(=O)=O)c2)CC1` [pridopidine, 4-(3-(Methylsulfonyl)phenyl)-1-propylpiperidine]: the “spine impairment and aberrant calcium signaling” value in the experiment with S1R was “rescue spine impairment and aberrant calcium signaling”. Besides, the “reduction of number of mutant SOD1 aggregates, gray matter” value in the experiment on SOD1G93A mice (spinal cord gray matter) was about 50%. Moreover, the “reduction of number of mutant SOD1 aggregates, white matter” value in the experiment with SOD1G93A mice (spinal cord white matter) is recorded as about 50%. The “velocity of BDNF axonal transport” value in [1] (0.1 μM) and in [1] (1 μM) was “not able to recover these defects” each time. In addition, the “axonal transport parameters of Qdot-BDNF” value in experiment [1] (S1R−/− MNs, any of the concentrations tested) is reported as “not responsive to pridopidine”. Moreover, the “instantaneous velocity of Qdot-BDNF particles” value in [1] (SOD1G93A MNs, 0.1 μM) is “accelerated the instantaneous velocities”; in experiment [1] (SOD1G93A MNs, 1 μM) it was “accelerated the instantaneous velocities”; in [1] (WT MNs, 0.1 μM, overnight incubation), “accelerated the instantaneous velocities”. The “particle stop count (number of counted stops of Qdot-BDNF per second)” value in experiment [1] (SOD1G93A MNs, 0.1 μM) is on record as “reduced the number of pauses during axonal transport”; in experiment [1] (SOD1G93A MNs, 1 μM), “reduced the number of pauses during axonal transport”; in experiment [1] (WT MNs, 0.1 μM), “reduced the number of pauses during axonal transport”. For the same compound, the “percentage of contracting myocytes (neuromuscular activity)” value in the experiment on MN-myocyte co-culture (S1R−/− MNs co-cultures, 0.1μM) is reported as “did not restore the neuromuscular activity”. The “percentage of contracting myocytes” value is “significantly lower than the percentage of contracting myocytes in untreated and treated WT cultures” with MN-myocyte co-culture (S1R−/− MNs co-cultures, 1 μM); “increases the percentage of contracting myocytes and restores neuromuscular activity to WT levels” in the experiment with MN-myocyte co-culture (SOD1G93A myocytes co-culture, 0.1μM); “increases the percentage of contracting myocytes and restores neuromuscular activity to WT levels” with MN-myocyte co-culture (SOD1G93A myocytes co-culture, 1μM). In addition, in the experiment on MN-myocyte co-culture (muscles carrying SOD1 mutation, 1 μM), the “innervation rate of muscles” value is reported as “increases innervation rate of muscles carrying SOD1 mutation to near WT levels”. In addition, in [2], the “axonal growth: number of grooves with axons crossing into muscle compartment” value was “increased number of axons crossing into the distal compartment”. Moreover, the “secretion of BDNF” value in the experiment with neuroblastoma cell line is listed as “enhance secretion of the neuroprotective brain-derived neurotrophic factor (BDNF)”. The “expression of BDNF, D1R, GR and Akt/PI3K pathways” value with rat striatum is “activates expression”. For the same compound, the “symptoms of ALS in human subjects” value in experiment [3] was “provides a clinically meaningful advantage in reducing the symptoms of ALS”. Further, the “loss of NMJs” value in [4] (SOD1G93A mice compared to WT, gastrocnemius, pridopidine treated) is listed as about 20%. Moreover, the entries for the “increase in the muscle fiber diameter” value in experiment [4] (SOD1G93A mice) and in experiment [4] (WT mice) were about 4 μm and about 5 μm, respectively. Moreover, the “activation of ERK (pERK)” value with ERK (S1R−/− MN cultures, 0.1 μM and 1 μM) is “but not in S1R−/− MN cultures”. Besides, the “increase in pERK (pERK/ERK ratio)” value in the experiment on ERK (SOD1G93A MNs, 0.1 μM) is about 2.9 fold; in the experiment on ERK (SOD1G93A MNs, 1 μM), about 8.5 fold; in the experiment with ERK (WT MNs, 0.1 μM), about 3.5 fold; in the experiment with ERK (WT MNs, 1 μM), about 4 fold.
`Nc1nc2ccc(OC(F)(F)F)cc2s1` [riluzole, reference compound]: the “instantaneous velocity of Qdot-BDNF particles” value in experiment [1] (SOD1G93A MNs, 100l M (printed)) is “did not affect the instantaneous velocities”; in experiment [1] (SOD1G93A MNs, 251M (printed)), “did not affect the instantaneous velocities”. The “rate of progression of the disease” value in the experiment with ALS patients was “slows the rate of progression of the disease”.
In the case of `CC1=NN(c2ccccc2)C(=O)C1` [edaravone], the physical decline result with ALS patients is “slows physical decline”.
